Data set [1] can be described thus: Hygroscopicity of the active pharmaceutical ingredient. The data set is classed as physicochemical.
Data set [2] is described as follows: Solubility / biopharmaceutical classification system class. Type of data set: physicochemical.

The structures appear in SMILES notation. “Also recorded” adds a separate entry of the source.

Consider `C=CC(=O)N1CCC([C@@H]2CCNc3c(C(N)=O)c(-c4ccc(Oc5ccccc5)cc4)nn32)CC1` [Zanubrutinib, (S)-7-[4-(1-acryloylpiperidine)]-2-(4-phenoxyphenyl)-4,5,6,7-tetrahydropyrazolo[1,5-a] pyrimidine-3-carboxamide], for which, in data set [1], the hygroscopicity result was “slightly hygroscopic”. In addition, in data set [2], the “biopharmaceutical classification system class” value was “class II (low solubility, and high permeability)”. The solubility entry in data set [2] (active pharmaceutical ingredient) is “poor solubility; also recorded: pH-dependent solubility”.

The record behind these values is patent US12233069B2, “Oral solid tablet comprising Bruton's Tyrosine Kinase inhibitor and preparation method therefor” (BEIGENE SWITZERLAND GMBH, priority 2019, dated 2025).
